# Measurements reported in US20040143021A1, “Compositions and methods for improving recovery after general anesthesia” (priority 2003, published 2004).
# Tests used:
# [1] = tested on: patients scheduled for same day surgery under general anesthesia; test: Randomized, double blind, parallel group clinical study of modafinil vs placebo on recovery after general anesthesia (symptom evaluation by verbal analog scale); type: in vivo; settings: for Appetite, verbal analog score, mean (SD) / Ease of sleep, verbal analog score, mean (SD) / Energy, verbal analog score, mean (SD) / Exhaustion, verbal analog score, mean (SD) / Fatigue, verbal analog score, mean (SD) / Nausea, verbal analog score, mean (SD) / Reading ability, verbal analog score, mean (SD) / Restless, verbal analog score, mean (SD) / Tense, verbal analog score, mean (SD) / Worn out, verbal analog score, mean (SD): VAS 0 to 10; for Operative distress, point value: total of 60 possible points
# Source text: Informed consents were obtained from patients scheduled to undergo outpatient surgical procedures under general anesthesia to participate in this prospective study approved by an institutional review board. In this study, the clinical activity of modafinil to improve recovery post-anesthesia was examined in a randomized, double blind, parallel group study. Thirty-four (34) patients scheduled for same day surgery under general anesthesia participated in this prospective study. Patients were American Society of Anesthesiology physical status I-II, with a Body-Mass-Index <40 without any known significant renal, hepatic, cardiovascular, neurological, gastrointestinal, endocrine, hematologic, or pulmonary diseases as judged by the investigator. A history of epilepsy, alcoholism, or chronic use of opioids also excluded the patients from participation in this study. Patients were asked to rate various symptoms they had experienced over the previous 24-hour period using a verbal analog scale (VAS) rating of 0 to 10, as well as discrete scores when indicated. The symptom evaluation included headache, dizziness, level of energy, appetite, nausea, pain, vomiting, degree of being tense, clear-headedness, restlessness, fatigue, exhaustion, quality of sleep during the previous night, need for the help from a caregiver, the ability to read, comprehend, and communicate.
# Anesthetic management of the patients was at the discretion of the attending anesthesiologist. Patients were monitored post-operatively, and cared for according to institutional standards. Once the patient was able to tolerate oral intake of liquids, the study drug (modafinil, 200 mg) or placebo was administered, randomly, with a sip of water. Patients were discharged according to institutional standards. Patients were contacted 24 (+1) hours after dosing for symptom evaluation and the same questions were asked. Patients were also asked whether the study drug they received had any beneficial effect. If the patient felt they received a benefit from the study drug they were asked to describe the benefit in their own words.
# The study group included 24 female and 10 male patients (n=17 per group). The demographics of the groups are shown below in Table 1. There were no significant differences in age, height, weight, or gender distribution between the two groups.
# Almost all patients had received the same type of anesthetic management including propofol, a narcotic, a volatile agent, a muscle relaxant, nitrous oxide, and oxygen. Patients had undergone mostly orthopedic or gynecological surgical procedures. Surgical procedures or the exact doses of anesthetics were not compared between the groups.
# There were no significant differences in preoperative symptoms reported between the two groups (modafinil versus placebo; Table 2). As expected, patients were tenser, more restless, and less relaxed pre-operatively (in both groups). […] Operative distress was defined as a lack of energy, presence of feeling worn out, fatigue, exhaustion, mental clouding, and problem reading (comprehending) (total of 60 possible points to define the most severe Operative distress). In the modafinil group, the point value for operative distress was 10.5±6.0, preoperatively, increasing to 11.3±9.1, postoperatively. The corresponding values for operative distress in the placebo group were 13.4±11.9, pre-operatively, and 21.0±13.8, post-operatively.
# [2] = tested on: patients with excessive daytime sleepiness associated with narcolepsy; settings: clinical trials, 200 mg/d and 400 mg/d; cited from earlier work
# sleep-deprived pilots = settings: in vivo; cited from earlier work
# [3] = post-operative minus pre-operative, modafinil 200 mg
# [4] = post-operative, 24 h after modafinil 200 mg oral, n = 17
# [5] = pre-operative (before dosing), n = 17
# [6] = share of patients, modafinil 200 mg, n = 17
structure (smiles),measurement,setting,value
NC(=O)C[S+]([O-])C(c1ccccc1)c1ccccc1 (stereo not drawn) [Modafinil],"Patients expressing themes of ""alertness"" and ""energy"" as benefit of study drug","[1]; content analysis of comments, modafinil group, p<0.05 vs 18% placebo",71%
same,Exhaustion postoperatively compared with placebo,[1]; modafinil 200 mg vs placebo,significantly less exhausted
same,Fatigue postoperatively compared with placebo,[1]; modafinil 200 mg vs placebo,significantly less fatigue
same,Feeling worn out postoperatively compared with placebo,[1]; modafinil 200 mg vs placebo,significantly less worn out
same,Feelings of alertness and energy in patients recovering from general anesthesia,[1]; modafinil 200 mg vs placebo,"significantly improved feelings of alertness, and energy"
same,Post-operative distress compared with placebo,[1]; modafinil 200 mg vs placebo,significantly less post-operative distress
same,Patients complaining of not being able to fall asleep at night,"[1]; modafinil group (n = 17), four in placebo group",one
same,Patients complaining of moderate-to-severe fatigue,[1]; modafinil treatment group vs 65% placebo,12%
same,"Appetite, verbal analog score, difference",[1]; [3],−1.8
same,"Ease of sleep, verbal analog score, difference",[1]; [3],−0.3
same,"Energy, verbal analog score, difference",[1]; [3],−1.3
same,"Exhaustion, verbal analog score, difference",[1]; [3],0.2
same,"Fatigue, verbal analog score, difference",[1]; [3],−0.2
same,"Nausea, verbal analog score, difference",[1]; [3],1.3
same,"Reading ability, verbal analog score, difference",[1]; [3],0.2
same,"Restless, verbal analog score, difference",[1]; [3],−2.0
same,"Tense, verbal analog score, difference",[1]; [3],−3.2
same,"Worn out, verbal analog score, difference",[1]; [3],−0.6
same,"Appetite, verbal analog score, mean (SD)",[1]; [4],6.1 (3.8)
same,"Ease of sleep, verbal analog score, mean (SD)",[1]; [4],6.2 (3.6)
same,"Energy, verbal analog score, mean (SD)",[1]; [4],6.2 (3.5)
same,"Exhaustion, verbal analog score, mean (SD)",[1]; [4],2.4 (3.1)
same,"Fatigue, verbal analog score, mean (SD)",[1]; [4],1.4 (1.8)
same,"Nausea, verbal analog score, mean (SD)",[1]; [4],1.9 (3.5)
same,"Reading ability, verbal analog score, mean (SD)",[1]; [4],9.2 (1.6)
same,"Restless, verbal analog score, mean (SD)",[1]; [4],2.5 (3.0)
same,"Tense, verbal analog score, mean (SD)",[1]; [4],2.2 (3.2)
same,"Worn out, verbal analog score, mean (SD)",[1]; [4],2.9 (2.4)
same,"Mental limitation to resume activity, verbal analog score, mean (SD)",[1]; [4],0.6 (1.6)
same,"Operative distress, point value","[1]; postoperatively, modafinil 200 mg",11.3±9.1
same,"Appetite, verbal analog score, mean (SD)",[1]; [5],7.9 (2.9)
same,"Ease of sleep, verbal analog score, mean (SD)",[1]; [5],6.5 (3.3)
same,"Energy, verbal analog score, mean (SD)",[1]; [5],7.5 (2.8)
same,"Exhaustion, verbal analog score, mean (SD)",[1]; [5],2.2 (3.3)
same,"Fatigue, verbal analog score, mean (SD)",[1]; [5],1.6 (2.7)
same,"Nausea, verbal analog score, mean (SD)",[1]; [5],0.6 (2.4)
same,"Reading ability, verbal analog score, mean (SD)",[1]; [5],9.0 (2.1)
same,"Restless, verbal analog score, mean (SD)",[1]; [5],4.5 (3.7)
same,"Tense, verbal analog score, mean (SD)",[1]; [5],5.4 (3.6)
same,"Worn out, verbal analog score, mean (SD)",[1]; [5],3.5 (3.4)
same,"Operative distress, point value","[1]; preoperatively, modafinil group",10.5±6.0
same,"Fatigue, % with rating > 3",[1]; [6],18%
same,"Fatigue, % with rating ≧ 5",[1]; [6],12%
same,"Worn out, % with rating > 3",[1]; [6],41%
same,"Worn out, % with rating ≧ 5",[1]; [6],29%
same,Daytime wakefulness,[2],significantly improve daytime wakefulness
same,Effect on nighttime sleep,[2],without affecting nighttime sleep
same,Fatigue and confusion in sleep-deprived pilots,sleep-deprived pilots,reduce fatigue and confusion
